Data taken from patent US20100087649A1, “QUINOLINONE DERIVATIVES” (priority 2006, published 2010).

Tests used:
[1] = system: wild-type HIV-IIIB strain; assay: Antiviral analysis EGFP: anti-HIV activity in MT4 LTR-EGFP cells; type: cell-based, HIV-1; details: fluorescence of HIV-infected cells reduced by 50%, three days after infection
Experimental: The compounds of the present invention were tested for anti-viral activity in a cellular assay, which was performed according to the following procedure.
The human T-cell line MT4 is engineered with Green Fluorescent Protein (GFP) and an HIV-specific promoter, HIV-1 long terminal repeat (LTR). This cell line is designated MT4 LTR-EGFP, and can be used for the in vitro evaluation of anti-HIV activity of investigational compounds. In HIV-1 infected cells, the Tat protein is produced which upregulates the LTR promotor and finally leads to stimulation of the GFP reporter production, allowing measuring ongoing HIV-infection fluorometrically.
(§1) Effective concentration values such as 50% effective concentration (EC50) can be determined and are usually expressed in μM. An EC50 value is defined as the concentration of test compound that reduces the fluorescence of HIV-infected cells by 50%. The 50% cytotoxic concentration (CC50 in μM) is defined as the concentration of test compound that reduces fluorescence of the mock-infected cells by 50%. The ratio of CC50 to EC50 is defined as the selectivity index (SI) and is an indication of the selectivity of the anti-HIV activity of the inhibitor. The ultimate monitoring of HIV-1 infection and cytotoxicity is done using a scanning microscope. Image analysis allows very sensitive detection of viral infection. Measurements are done before cell necrosis, which usually takes place about five days after infection, in particular measurements are performed three days after infection.
The following Table 5 lists EC50 values, expressed in micromole/liter, against wild-type HIV-IIIB strain, for a selected number of compounds of the invention.

[2] = Cytotoxicity in mock-infected MT4 CMV-EGFP cells; type: cell-based, human; details: human, fluorescence reduced by 50%
Source text: (§2) Analogously, MT4 cells are engineered with GFP and the constitutional cytomegalovirus (CMV) promotor. This cell line is designated MT4 CMV-EGFP, and can be used for the in vitro evaluation of cytotoxicity of investigational compounds. In this cell line, GFP levels are comparably to those of infected MT4 LTR-EGFP cells. Cytotoxic investigational compounds reduce GFP levels of mock-infected MT4 CMV-EGFP cells.
as §1

MT4 CMV-EGFP cells = assay: Cytotoxicity in mock-infected MT4 CMV-EGFP cells; type: cell-based, human; details: fluorescence reduced by 50%
Source text: as §2, §1

[3] = Human immunodeficiency virus 1, 72 h

Row | Compound | EC50 [1, 3] [µM] | CC50 at 3 days [2] [µM] | EC50 [1] [µM] | CC50 (MT4 CMV-EGFP cells) [µM]
1 | N#Cc1c(N)c2ccc(Br)cc2n(-c2ccc([N+](=O)[O-])cc2)c1=O [compound 118] | 0.72 | > 32 |  | 
2 | Cc1ccc(-n2c(=O)c(C#N)cc3ccc(-c4cc[nH]c4)cc32)cc1C#N [compound 150] | 0.56 | > 100 |  | 
3 | Cc1ccc(-n2c(=O)c(C#N)cc3ccc(-c4cccc(CNC(=O)CN(C)C)c4)cc32)cc1C#N [compound 158] | 0.21 | 11.5 |  | 
4 | Cc1ccc(-n2c(=O)c(C#N)cc3ccc(-c4ccccn4)cc32)cc1C#N [compound 159] | 1.74 | 86 |  | 
5 | N#Cc1c(N)c2ccccc2n(-c2ccc([N+](=O)[O-])cc2)c1=O [compound 101] | > 32 | > 32 |  | 
6 | N#Cc1cc2ccc(-n3cccc3)cc2n(-c2ccc([N+](=O)[O-])cc2)c1=O [compound 25] | 0.95 | 97.2 |  | 
7 | N#Cc1cc2ccc(OP(=O)(O)O)cc2n(-c2ccc([N+](=O)[O-])cc2)c1=O [compound 70] | 17.5 | > 32 |  | 
8 | COc1cc2cc(C#N)c(=O)n(-c3ccc([N+](=O)[O-])cc3)c2cc1OC [compound 93] | 7.01 | > 32 |  | 
9 | N#Cc1cc2cc(O)c(O)cc2n(-c2ccc([N+](=O)[O-])cc2)c1=O [compound 94] | > 32 | > 32 |  | 
10 | COc1ccc2cc(C#N)c(=O)n(-c3ccc([N+](=O)[O-])cc3)c2c1 [compound 9] | 2.48 | > 32 |  | 
11 | COc1ccc2cc(C#N)c(=O)n(-c3ccc(C)c(C#N)c3)c2c1 [compound 146] | 4.67 | > 100 |  | 
12 | N#Cc1cc2ccc(O)cc2n(-c2ccc([N+](=O)[O-])cc2)c1=O [compound 10] | 13.3 | > 32 |  | 
13 | Cc1ccc(-n2c(=O)c(C#N)c(NCCN)c3ccccc32)cc1C#N [compound 164] | 0.63 | 12.9 |  | 
14 | N#Cc1cc2ccc(=O)[nH]c2n(-c2ccc([N+](=O)[O-])cc2)c1=O [compound 100] | > 32 | > 32 |  | 
15 | Cc1ccc(-n2c(=O)c(C#N)cc3ccccc32)cc1C#N [compound 163] | 9.25 | > 100 |  | 
16 | N#Cc1cc2ccccc2n(-c2ccc([N+](=O)[O-])cc2)c1=O [compound 1] | 2.89 | > 100 |  | 
17 | N#Cc1cc2cccnc2n(-c2ccc([N+](=O)[O-])cc2)c1=O [compound 99] | 19.3 | > 32 |  | 
18 | COc1ccc2c(N)c(C#N)c(=O)n(-c3ccc(C)c(C#N)c3)c2c1 [compound 145] | 3.01 | > 100 |  | 
19 | N#Cc1c(NCCN2CCCC2)c2ccccc2n(-c2ccc([N+](=O)[O-])cc2)c1=O [compound 130] | 3.71 | > 100 |  | 
20 | N#Cc1cc2ccc(N)cc2n(-c2ccc([N+](=O)[O-])cc2)c1=O [compound 24] | 1.48 | > 32 |  | 
21 | N#Cc1cc2ccc(-c3ccccc3)cc2n(-c2ccc([N+](=O)[O-])cc2)c1=O [compound 28] | 1.34 | > 32 |  | 
22 | Cc1ccc(-n2c(=O)c(C#N)cc3ccc(NCCCN4CCCC4)cc32)cc1C#N [compound 157] | 0.89 | 52.7 |  | 
23 | Cc1ccc(-n2c(=O)c(C#N)c(N)c3ccc(-c4ccccn4)cc32)cc1C#N [compound 123] | > 100 | > 100 |  | 

Row | Compound | EC50 [1, 3] [µM] | CC50 at 3 days [2] [µM] | EC50 [1] [µM] | CC50 (MT4 CMV-EGFP cells) [µM]
24 | N#Cc1cc2ccc(-n3cnnc3)cc2n(-c2ccc([N+](=O)[O-])cc2)c1=O [compound 26] | 80.9 | > 100 |  | 
25 | Cc1ccc(-n2c(=O)c(C#N)cc3ccc(Br)cc32)cc1C#N [compound 149] | 2.74 | > 100 |  | 
26 | Cc1ccc(-n2c(=O)c(C#N)c(N)c3ccc(Br)cc32)cc1C#N [compound 121] | 0.75 | 55.2 |  | 
27 | Cc1ccc2c(N(C)C)c(C#N)c(=O)n(-c3ccc([N+](=O)[O-])cc3)c2n1 [compound 127] | 22.4 | > 32 |  | 
28 | Cc1ccc(-n2c(=O)c(C#N)cc3ccc(OCCCN4CCCC4)cc32)cc1C#N [compound 148] | 0.64 | 51.5 |  | 
29 | Cn1c(=O)oc2cc(-n3c(=O)c(C#N)cc4ccccc43)ccc21 [compound 8] | 12.5 | > 100 |  | 
30 | Cc1ccc(-n2c(=O)c(C#N)cc3ccc(OCCCN(C)C)cc32)cc1C#N [compound 147] | 0.85 | 83.9 |  | 
31 | Cc1c(C#N)c(=O)n(-c2ccc([N+](=O)[O-])cc2)c2ccccc12 [compound 7] | 9.34 | > 100 |  | 
32 | N#Cc1c(N)c2ccc(-c3cccs3)cc2n(-c2ccc([N+](=O)[O-])cc2)c1=O [compound 119] | 0.52 | > 100 |  | 
33 | COc1ccc2c(c1)cc(C#N)c(=O)n2-c1ccc([N+](=O)[O-])cc1 [compound 83] | > 32 | > 32 |  | 
34 | N#Cc1c(N)c2ccc(Cl)cc2n(-c2ccc(Cl)nc2)c1=O [compound 103] | 3.61 | 85.2 |  | 
35 | Cc1ccc(-n2c(=O)c(C#N)c(N)c3ccc(-c4cc[nH]n4)cc32)cc1C#N [compound 124] |  |  | 83.9 | > 100
36 | N#Cc1cc2ccc(-c3ccc(C(=O)O)s3)cc2n(-c2ccc([N+](=O)[O-])cc2)c1=O [compound 47] |  |  | > 100 | > 100
37 | CN(C)CCNc1c(C#N)c(=O)n(-c2ccc([N+](=O)[O-])cc2)c2ccccc12 [compound 142] |  |  | 3.28 | 54.7
38 | N#Cc1cc2ccc(-c3cccnc3)cc2n(-c2ccc([N+](=O)[O-])cc2)c1=O [compound 33] |  |  | 0.83 | > 100
39 | CC(=O)NCc1cccc(-c2ccc3cc(C#N)c(=O)n(-c4ccc(C)c(C#N)c4)c3c2)c1 [compound 151] |  |  | 2.22 | > 100
40 | N#Cc1cc2ccc(-n3ccnc3)cc2n(-c2ccc([N+](=O)[O-])cc2)c1=O [compound 27] | 1.13 | > 100 |  | 
41 | N#Cc1cc2ccc(OCCNCCO)cc2n(-c2ccc([N+](=O)[O-])cc2)c1=O [compound 71] | > 32 | > 32 |  | 
42 | CNc1c(C#N)c(=O)n(-c2ccc([N+](=O)[O-])cc2)c2ncccc12 [compound 128] |  |  | 13.9 | > 32
43 | N#Cc1cc2ccc(OCCCCN)cc2n(-c2ccc([N+](=O)[O-])cc2)c1=O [compound 60] |  |  | 3.76 | > 32
44 | N#Cc1cc2ccc(OCCCN)cc2n(-c2ccc(Cl)nc2)c1=O [compound 92] |  |  | 8.55 | > 32
45 | CS(=O)(=O)NCc1cccc(-c2ccc3cc(C#N)c(=O)n(-c4ccc([N+](=O)[O-])cc4)c3c2)c1 [compound 50] |  |  | 3 | 11.8
